Values of other authors, collected in article PMC2766265 (Tetrahedron, 2008).

Legend:
[1] = tested on: opioid-receptor subtypes
[2] = tested on: κ-opioid receptor

## CC(=O)OC1C=CC2C(=O)OCC23CCC2C(=O)OC(c4ccoc4)C(OC(C)=O)C2(C)C13 (stereo not drawn) [Compound 3, splendidin]
[1]
  binding to any of the opioid-receptor subtypes: none of these diterpenes showed significant binding

## COC(=O)[C@@H]1C[C@H](OC(C)=O)C(=O)[C@H]2[C@@]1(C)CC[C@H]1C(=O)O[C@H](c3ccoc3)C[C@]21C [Compound 1, Salvinorin A]
[2]
  agonist activity at the κ-opioid receptor: potent and selective agonist

## C[C@]12C[C@H](c3ccoc3)OC(=O)[C@H]1CC[C@@]13COC(=O)[C@@H]1C=CC[C@H]23 [Compound 2, salviarin]
[1]
  binding to any of the opioid-receptor subtypes: none of these diterpenes showed significant binding
